# Data published in patent publication US7579448B2, “Purification of microbial cell fermentation homogenates” (Genentech, Inc., priority 2003, dated 2009).
# Columns and labels:
# [1] = Conductivity study: NaCl added to anti-CD18 homogenate with 0.6% ethacridine lactate; assay type: physicochemical; conditions: 100 mM NaCl, anti-CD18 homogenate diluted 4-fold
# Procedure: Various concentrations of NaCl were added to anti-CD18 homogenate to evaluate the effect of conductivity on protein precipitation. The NaCl concentrations studied were 0, 50, 100, 150, 200, and 400 mM. A reference series without ethacridine lactate was also performed to determine if any protein was precipitated due to the high salt concentration. The pH in this salt spike study was 8.5 and the anti-CD18 homogenate was diluted 4-fold. The ethacridine lactate concentration in the samples was 0.6% and 0% for the reference experiments.
# [2] = Ethacridine lactate solubility at increasing NaCl concentrations; assay type: physicochemical
# Procedure: The samples were incubated for three hours at room temperature before the concentration of soluble ethacridine lactate was determined. The open keys symbolize the 1.2% ethacridine lactate solution and the closed keys the 0.6% solution. The solid line is the 0.6% ethacridine lactate solution at pH 6.0, the broken line is the 1.2% ethacridine lactate solution at pH 6, the dotted line is the 0.6% ethacridine lactate solution at pH 9, and the broken line with dots is the 1.2% ethacridine lactate solution at pH 9.
# Two ethacridine lactate solutions, i.e., 0.6 and 1.2%, were studied. Each solution was divided into two aliquots and pH adjusted to 6.0 and 9.0, respectively. To obtain a slight buffer capacity in the system, the ethacridine lactate was dissolved in 10 mM Tris-HCl buffer. Each ethacridine lactate solution was exposed to increasing amounts of NaCl, i.e., 0, 50, 100, 150, 200, 300, and 600 mM. The samples were incubated for 3 hours, then centrifuged for 20 minutes at 12000 g in a microfuge (SORVALL MC12V™, DuPont, Wilmington, Del., USA). The supernatants were assayed for ethacridine lactate by measuring the absorption at 270 nm. The spectrophotometer used was a HP8453 UV-VIS™ from Hewlett Packard (Wilmington, Del.), now Aligent Technologies (Palo Alto, Calif.) and known as the AGILENT 8453 UV-VIS™ spectrophotometer. A standard curve was derived from a solution with known ethacridine lactate concentration.
compound,measurement,setting,value
"CC(O)C(=O)O.CCOc1ccc2nc3cc(N)ccc3c(N)c2c1 [ethacridine lactate, 6,9-diamino-2-ethoxyacridine lactate]",precipitation of ethacridine lactate in the extraction system,[1],precipitation of ethacridine lactate was observed
same,solubility of ethacridine lactate,"[2]; pH 6, 0.6 and 1.2% solutions, 50 mM NaCl, 3 hours at room temperature",soluble
same,solubility of ethacridine lactate,"[2]; pH 6, 0.6 and 1.2% solutions, 100 mM NaCl, 3 hours at room temperature",nearly fully precipitated
same,solubility of ethacridine lactate,"[2]; pH 9, 0.6% solution compared with 1.2% solution, increasing NaCl",precipitated at lower salt concentration than the more concentrated ethacridine lactate solution
